These results are taken from publication PMC5869554 (CPT: Pharmacometrics & Systems Pharmacology, 2017).

In brackets after ≈: the same amount, converted by molar mass. Read-outs that look alike come from different tables or passages of the source.

The nature of one series: pKa determination. The format is physicochemical.
The conditions of series [1]: ref 8, 9; cited from earlier work.
In another series the test system is guinea pig trachea. As to conditions: cited from earlier work.
Series [2] is described as follows: LogD7.4, octanol/water partition coefficient. The format is physicochemical. As to conditions: for LogD7.4: aqueous phase at pH7.4; for logD: pH 7.4.
Series [3] can be described thus: Solubility in phosphate buffer at pH 7.4. The format is physicochemical.
Series [4] concerns forced expiratory volume in 1 second (FEV1). Kind of series: Clinical lung function. The settings on record: once daily dosing; glycopyrronium 25 µg, indacaterol 300 µg, batefenterol 800 µg; COPD patients. The format is in vivo, human.
The test system of another series is human bronchi. The settings on record: cited from earlier work.
Setting [5] is: pKa, second printed value (dibase).
[6] abbreviates: phosphate buffer, pH 7.4, aqueous buffer.

In the case of `CCN(CC)CCN(CCNCCc1ccc(O)c2[nH]c(=O)sc12)C(=O)CCOCCc1cccc2ccccc12` [AZD3199], the values for the pKa in “pKa determination” and in “pKa determination” (second printed value (dibase)) were 9.5 and 7.1, respectively. Further, the lung half lives result in series [1] was “in the order of days”. In addition, the “In vitro guinea pig trachea pIC50” value in the series on guinea pig trachea (ref 19) was 8.019. Further, the LogD7.4 in series [2] is reported as 2.3. The solubility in series [3] (phosphate buffer at pH 7.4) is 2,510 µM.
In the case of `COc1cc(NC(=O)CCN2CCC(OC(=O)Nc3ccccc3-c3ccccc3)CC2)c(Cl)cc1CNC[C@H](O)c1ccc(O)c2[nH]c(=O)ccc12` [Batefenterol, (R)‐1‐(3‐((2‐chloro‐4‐(((2‐hydroxy‐2‐(8‐hydroxy‐2‐oxo‐1,2‐dihydroquinolin‐5‐yl)ethyl)amino)methyl)‐5‐methoxyphenyl)amino)‐3‐oxopropyl)piperidin‐4‐yl [1,1'‐biphenyl]‐2‐ylcarbamate], in series [4], the “associated increase in FEV1, single to multiple dosing” value (shortened to “associated increase in FEV1, single”) is reported as “around 100 mL”. For the same compound, the results for the pKa in “pKa determination” (pKa) and in “pKa determination” (setting [5]) were 10 and 7.3, respectively. Besides, the lung half lives result in series [1] was “in the order of days”. In the series with guinea pig trachea (ref 26), the “In vitro guinea pig trachea pIC50” value is 8.026. Besides, the logD in series [2] was 3.1. Moreover, the concentration in solution in series [3] (setting [6]) (solubility) came to 28 µM (≈ 20.7 µg/mL).
`COc1ccc(CC(C)NCC(O)c2ccc(O)c(NC=O)c2)cc1` (stereo not shown) [Formoterol]: the “In vitro guinea pig trachea pIC50” value in the series on guinea pig trachea (ref 19) is listed as 8.819. The “In vitro human bronchi pIC50” value in the series on human bronchi (ref 23) was 8.8.
With `CC(C)[N+]1(C)[C@@H]2CC[C@H]1C[C@@H](OC(=O)C(CO)c1ccccc1)C2` (stereo partly shown) [Ipratropium], in the series with guinea pig trachea (ref 25), the “In vitro guinea pig trachea pIC50” value is reported as 8.625. The “In vitro human bronchi pIC50” value in the series on human bronchi (ref 25) is 9.525.
As to `C[N+]1(C)CCC(OC(=O)C(O)(c2ccccc2)C2CCCC2)C1` (stereo not shown) [Glycopyrronium], in series [4], the “associated increase in FEV1, single” value is on record as “around 40 mL”. The “In vitro guinea pig trachea pIC50” value in the series with guinea pig trachea (ref 25) is 9.025. The “In vitro human bronchi pIC50” value in the series with human bronchi (ref 24) is 8.4; in the series with human bronchi (ref 25), 10.4.
As for `CCc1cc2c(cc1CC)CC(NC[C@H](O)c1ccc(O)c3[nH]c(=O)ccc13)C2` [Indacaterol], the “associated increase in FEV1, single” value in series [4] is “around 40 mL”. The pKa in the series “pKa determination” (pKa) was 8.3. Moreover, the “In vitro guinea pig trachea pIC50” value with guinea pig trachea (ref 19) is recorded as 7.719. Also, the logD in series [2] came out at 2.8. In series [3] (setting [6]), this compound showed a solubility of 25 µM (≈ 9.81 µg/mL). For the same compound, the “In vitro human bronchi pIC50” value is 6.6 in the series on human bronchi (ref 22) and 7.4 in the series with human bronchi (ref 24).
With `CNC(=O)c1cc(Cl)c(OC(C)(C)C(=O)O)cc1OC[C@@H](O)CN1CCC2(CC1)Cc1cc(Cl)ccc1O2` [AZD4818], the pKa in “pKa determination” (pKa) was found to be 8.4; in “pKa determination” (setting [5]) it was 6.2. Moreover, the logD in series [2] turned out to be 0.9. In series [3] (setting [6]), this compound gave a solubility of over 2500 µM.
`C[N+]1(C)[C@@H]2C[C@@H](OC(=O)C(O)(c3cccs3)c3cccs3)C[C@H]1[C@@H]1O[C@@H]12` [Tiotropium]: the “In vitro guinea pig trachea pIC50” value with guinea pig trachea (ref 25) was 9.125. Also, the solubility in series [3] (setting [6]) was over 2800 µM. The “In vitro human bronchi pIC50” value with human bronchi (ref 25) is on record as 9.525.
Regarding `CC(C)(C)NCC(O)c1cc(O)cc(O)c1` (stereo not shown) [Terbutaline], the pKa in the series “pKa determination” (pKa) came to 9.3. The logD in series [2] is -1.5. For the same compound, the concentration in solution in series [3] (setting [6]) (solubility) came to 6830 µM (≈ 1540 µg/mL).
Consider `CC(C)c1ncc(C(=O)N2CCOC3(CCN(Cc4ccc(F)c(CCNC[C@H](O)c5ccc(O)c6[nH]c(=O)sc56)c4)CC3)C2)s1` [AZD2115], for which the pKa in “pKa determination” is 8.7; in the series “pKa determination” (second printed value (dibase)) it was 7.6. In series [2], the LogD7.4 is 2.1. In series [3] (phosphate buffer at pH 7.4), this compound had a solubility of 650 µM (≈ 435 µg/mL).
With `OCc1cc(C(O)CNCCCCCCOCCCCc2ccccc2)ccc1O` (stereo not shown) [Salmeterol], the pKa in the series “pKa determination” (pKa) is 9.1. This compound yielded a logD in series [2] of 2.2. In series [3] (setting [6]), this compound came in with a solubility of over 380 µM. Besides, the “In vitro human bronchi pIC50” value in the series with human bronchi (ref 21) is reported as 7.3; in the series on human bronchi (ref 22), 8.1.
Consider `CC(C)(C)NCC(O)c1ccc(O)c(CO)c1` (stereo not shown) [Salbutamol], for which the pKa in “pKa determination” (pKa) amounted to 9.2. Further, the “In vitro guinea pig trachea pIC50” value with guinea pig trachea (ref 19) is recorded as 6.719. Moreover, the solubility in series [3] (setting [6]) was over 2900 µM. In addition, the figures for the “In vitro human bronchi pIC50” value with human bronchi (ref 21) and with human bronchi (ref 22) were 6.4 and 6.9, respectively.

By pKa is commonly meant the negative logarithm of the acid dissociation constant. Higher therefore signals a group that holds its proton tightly. For orientation: solubility means how much of the substance goes into solution per volume. Higher therefore signals a readily soluble substance. Broadly, the logD is lipophilicity at a set pH, counting ionised and neutral species. Higher therefore signals a more lipophilic compound.
